Counter-ions that a name gives are not always drawn.
What was measured:
[1] = tested on: acetic acid-induced abdominal writhes; experiment: Acetic acid-induced writhing test; type: in vivo, mice; details: for MPE (%): 30 min. before acetic acid
Experimental: With the aim of assessing whether the compounds of the invention are able to inhibit responses to peritoneal irritation-induced visceral pain, the acetic acid-induced writhing assay was used in mice to determine the degree of anti-nociception.
The writhing test is a model of inflammatory pain that has long been used as a screening tool for evaluation of analgesic and anti-inflammatory agents (HDJ Collier, B. J. Pharmacol Chemother., 1968, 32, 295-310). The test was performed inducing nociception by an i.p. injection of acetic acid 1%, 0.1 mL/10 g of body weight. Mice were pre-treated (subcutaneously, s.c., three different doses: 3, 10, 30 mg/Kg) with the tested compounds 30 min. before acetic acid injection, while control animals received a similar volume of saline solution. A group of mice was treated with Paracetamol (200 mg/Kg, s.c.) as reference drug. The number of abdominal writhes (full extension of both hind paws) was cumulatively counted every 5 minutes over a period of 20 min. immediately after the acetic acid injection. The anti-nociceptive activity was expressed as inhibition of abdominal writhes as maximum percent effect (MPE), which represents the difference (%) in pain threshold between the animals treated with the drug and the ones that received only the vehicle.

[2] = tested on: Zymosan-induced mechanical hyperalgesia; experiment: Zymosan-induced mechanical hyperalgesia (Randall-Selitto); type: in vivo, rat
Experimental: (§1) The interplantar injection of Zymosan-induced mechanical hyperalgesia was used as a model of inflammatory pain (Meller, Neuropharmacology, 1994, 33, 1471-1478). In this model, typically a male Sprague-Dawley or Wistar rat (200-250 g) receives an interplantar injection of 3 mg/100 μl zymosan into one hind paw. A marked inflammation occurs in this hind paw. Drugs are administered orally for evaluation of efficacy, 30 min. before the inflammatory insult. The hyperalgesia induced by zymosan administration was evaluated using the Randall-Selitto method (Arch. Int. Pharmacodyn., 1957, 111, 409). The quantitation of the analgesic effect is achieved by an analgesimeter, which consist in applying to the inflamed paw an increasing weight (from 130-140 g up to 500 g). The difference in the mechanical pain threshold between the basal value (generally 230-250 g) and the one tolerated by the animals treated with the drug, determined 4 hours after the inflammatory challenge, is defined as mechanical hyperalgesia.
(§2) Mechanical hyperalgesia is expressed for the compounds of the invention as ED50, which is the dose of the administered compound able to increase the pain threshold by 50% in comparison with the group of control animals. The corresponding ED100, representing the dose able of reducing of 100% the pain threshold, can be calculated for those cases where there is a linear dose-response relationship. In vivo anti-inflammatory effect exerted by the compound of the invention can be assessed in the same Zymosan induced inflammation test described above, by measuring the volume of the oedema induced by the inflammatory agent. The oedema was evaluated as the increase in the volume of the Zymosan injected paw within a time of 0-2 hrs. The measurements of the variation of the oedema volume of the paw were recorded using hydroplethysmometer, which consists of two plastic cuvettes containing a surfactant liquid, the larger one being used for immersion of the paw, connected to the smaller one which contains a trans-ducer capable of recording small displacements of the volume used for the measure. The paw is immersed in the cuvettes up to the tibiotarsal joint. The volume of the liquid displaced is proportional to the extent of the inflammation. The efficacy of the compounds of the invention in preventing oedema formation is expressed as ED30, and is measured 2 hours after the inflammatory challenge, and represents the dose able of reducing of 30%, the Zymosan induced paw volume increase in comparison to control animals (animals treated with Zymosan but treated with only distilled water instead of the testing compound). The corresponding ED50, representing the dose able of reducing of 50% the zymosan induced paw volume increase, can be calculated for those cases where there is a linear dose-response relationship.
(§3) In both the experiments, for each test compound, at least three doses were used, with 10 animals per group. Compounds of the invention were tested at 10, 20 and 40 mg/Kg.

[3] = tested on: IL-1β induced PGE2 production; experiment: PGE2 production induced by IL-1β in chondrocyte cell culture; type: cell-based, rabbit; details: at 10 μM
Text: (§4) Conversely, compounds of the invention are able to inhibit, at micromolar concentration, IL-1β induced PGE2 production in cellular systems. This inhibition effect on the production of the pro-inflammatory mediator PGE2, instead of to be ascribed to a direct COX-2 inhibition, as happens with Celecoxib and other COX-2 inhibitors, is in this case due to inhibition of cytokine induced COX-2 expression as proven in cellular systems.
(§5) Effectiveness in inhibition of PGE2 production induced by IL-1β in chondrocyte cell culture, as well as inhibition in IL-1β induced COX-2 expression in SW1353 human chondrosarcoma cell line, is summarized in Table 2, for representative compounds of the invention.

[4] = tested on: mechanical hyperalgesia associated with STZ-induced diabetes; experiment: STZ-induced diabetes mechanical hyperalgesia (neuropathic pain); type: in vivo, rat
Experimental: Streptozotocin (STZ)-induced diabetes in the rat has been increasingly used as a model of painful diabetic neuropathy to assess the efficacies of potential analgesic agents (C. Courteix, Pain 1993, 53, 81-8). The compounds of the invention were tested for efficacy in reducing mechanical hyperalgesia associated with STZ-induced diabetes in the rat, according to the experimental model as described by the literature. Diabetes was produced with the injection of a single dose (75 mg/Kg i.p.) of STZ. In the following four weeks after the induction of diabetes the clinical symptoms (weight, body and skin temperature, motility and hyperglycemia) progressively developed by the animals, are strictly monitored. After four weeks, the scores obtained in diabetic rats to various pain stimuli (in particular mechanical stimuli) were grater than those in normal rats, indicating hyperalgesia. The hyperalgesia induced by diabetes was evaluated using the Randall-Selitto method as above described, and quantitated using the analgesimeter. Also in this case, the difference in the mechanical pain threshold between the basal value (generally 230-250 g) and the one tolerated by the animals treated with the drug, is defined as mechanical hyperalgesia. The compounds of the invention were administered i.p. (solution, Tween 80, 10% in saline) at different doses, and mechanical hyperalgesia was measured at the reported time, as maximum percent effect (MPE) which represents the difference (%) in pain threshold between the animals treated with the drug and the controls that received only the vehicle, compared with the weight borne by naïf non-diabetic controls. A 100% protection means that the diabetic animals treated with the compound can tolerate the same stimulus (weight) as the naïf non-diabetic animals. MPE higher than 100% means that the diabetic animal treated with the compound can tolerate stimuli (weight) higher than the control non-diabetic animals (hypoalgesia).

IL-6 production = IL-6 production in IL-1 stimulated human chondrosarcoma cell line; type: cell-based; details: Compound concentration is 10 μM
Text: (§6) The compounds of the invention have been found effective in interfering with cytokine production in several cell lines, representative examples of this effect are reported in Table 3, for two representative cytokines, in IL-1 stimulated human chondrosarcoma cell line.

CFA-induced hyperalgesia = experiment: CFA model of chronic inflammatory pain; type: in vivo, rat
[5] = tested on: Zymosan induced paw volume increase; experiment: Zymosan-induced paw oedema; type: in vivo, rat
Experimental: as §1, §2, §3

IL-1 production = IL-1 production in IL-1 stimulated human chondrosarcoma cell line; type: cell-based; details: Compound concentration is 10 μM
Text: as §6

COX-2 expression = experiment: IL-1β induced COX-2 expression in SW1353 human chondrosarcoma cell line; type: cell-based; details: at 10 μM
Text: as §4, §5

Compound: CC(=N)Nc1ccc2nc(-c3ccc4c(c3)OCO4)ccc2c1 [Example 2, N-[2-(1,3-benzodioxol-5-yl)quinolin-6-yl]acetamidine dihydrochloride]
- MPE (%) ([1]; 3 mg/Kg s.c.): 59%
- MPE (%) ([1]; 10 mg/Kg s.c.): 61%
- MPE (%) ([1]; 30 mg/Kg s.c.): 57%
- ED50 ([1]; Mus musculus, sc): < 3 mg/kg
- ED50 ([2]; Rattus norvegicus, read-out: Analgesia ED50): 10.7 mg/kg
- Analgesia ED100 ([2]; oral, calculated from linear dose-response): 22 mg/kg
- Effects on PGE2 production in rabbit Chondrocyte culture, % at 10 μM [3]: 70% at 10 μM
- MPE 0.5 hrs. ([4]; 3 mg/Kg i.p.): 32%
- MPE 1.5 hrs. ([4]; 3 mg/Kg i.p.): 75%
- MPE 3 hrs. ([4]; 3 mg/Kg i.p.): 8%
- MPE 0.5 hrs. ([4]; 10 mg/Kg i.p.): 76%
- MPE 1.5 hrs. ([4]; 10 mg/Kg i.p.): 107%
- MPE 3 hrs. ([4]; 10 mg/Kg i.p.): 13%
- MPE 0.5 hrs. ([4]; 30 mg/Kg i.p.): 151%
- MPE 1.5 hrs. ([4]; 30 mg/Kg i.p.): 124%
- MPE 3 hrs. ([4]; 30 mg/Kg i.p.): 93%
- Inhibition (%) of IL-6 production (IL-6 production): 78%
- MPE 0.5 hrs. (CFA-induced hyperalgesia; 3 mg/Kg i.p.): 36%
- MPE 1.5 hrs. (CFA-induced hyperalgesia; 3 mg/Kg i.p.): 40%
- MPE 3 hrs. (CFA-induced hyperalgesia; 3 mg/Kg i.p.): 7%
- MPE 0.5 hrs. (CFA-induced hyperalgesia; 10 mg/Kg i.p.): 94%
- MPE 1.5 hrs. (CFA-induced hyperalgesia; 10 mg/Kg i.p.): 34%
- MPE 3 hrs. (CFA-induced hyperalgesia; 10 mg/Kg i.p.): 11%
- MPE 24 hrs. (CFA-induced hyperalgesia; 10 mg/Kg i.p.): 13%
- MPE 0.5 hrs. (CFA-induced hyperalgesia; 30 mg/Kg i.p.): 188%
- MPE 1.5 hrs. (CFA-induced hyperalgesia; 30 mg/Kg i.p.): 81%
- MPE 3 hrs. (CFA-induced hyperalgesia; 30 mg/Kg i.p.): 34%
- MPE 24 hrs. (CFA-induced hyperalgesia; 30 mg/Kg i.p.): 9%
- ED50 ([5]; Rattus norvegicus, po, read-out: Oedema Reduction ED50): 98 mg/kg
- Oedema Reduction ED30 ([5]; oral, 2 hours after challenge): 15.0 mg/kg
- Inhibition (%) of IL-1 production (IL-1 production): 45%
- Inhibition of COX-2 expression in SW1353 human chondrosarcoma cell line, % at 10 μM (COX-2 expression): 59% at 10 μM
